Data: patent US20260130932A1, “NOVEL COMBINATION OF RIFAXIMIN AND CLARITHROMYCIN FOR TREATING MULTIDRUG-RESISTANT MYCOBACTERIUM ABSCESSUS” (priority 2022, published 2026)
“And” between values parts separate entries of the source, which are not always exact repeats. Equal entries are not always repeated. Structures can show the parent of a compound that is named as a salt.

How the values were obtained:
M. abscessus strain M422 = experiment: Single-concentration assay with and without clarithromycin (hit validation); assay type: cell-based, Mycobacterium abscessus; conditions: for % inhibition with 0.5 μg/ml Clr: compound combined with clarithromycin; for % inhibition with compound alone: without clarithromycin
Protocol: (§1) For checkerboard synergy assay, 3 M. abscessus strains were used: M. abscessus ATCC 19977, M. abscessus strains M422 and M110, while bactericidal activity determination and the zebrafish study were performed with M. abscessus ATCC 19977. All three strains of M. abscessus harbor the inducible clarithromycin resistance-conferring erm(41) T28 sequevar. M. abscessus strain M422 and M110 were provided by Dr. Jeanette Teo, National University Hospital, Singapore (Chew K L, et al., 2017. J Med Microbiol 66: 1443-1447). M. abscessus ATCC 19977 and M. avium ATCC 700898 were acquired from American Type Culture Collection (ATCC).
Primary screening was carried out in 96-well flat-bottom Corning Costar cell culture plates at 50 μM compound along with 4 μg/ml of Clr in a starting inoculum of pre-induced M. abscessus cells at OD600 of 0.005 in a final volume of 100 μl. The plates were put in an airtight container with moist paper towels and incubated for 4 d at 30° C. The cultures in the wells were resuspended before OD600 was read in a BioTek Synergy 4 plate reader.
To start the validation process, the top 10 compounds with >90% growth inhibition were chose to perform a single-concentration assay, with and without clarithromycin. Finally, the inventors obtained 7 compounds that potentiated Clr efficacy.

M. abscessus ATCC 19977 = experiment: Zebrafish embryo infection model; assay type: in vivo, zebrafish (Denio rerio); conditions: Clr alone up to 74.8 μg/ml (100 μM), immersion for 4 days (FIG. 6A)
Text: To visualize the bacterial infection in the zebrafish (Denio rerio), a fluorescent strain of M. abscessus ATCC 19977 containing pJKD2893:mScarlet was generated. The pJKD2893 plasmid backbone was a kind gift from Professor Timothy Stinear. The gene expressing the fluorescent protein mScarlet was amplified from μMRE135-mScarlet (Addgene #118489, Mitja Remus-Emsermann lab). The amplification product was annealed by Gibson cloning with the pJKD2893 backbone amplified from a sample of pJKD2893. The resulting plasmid, termed pJKD2893:mScarlet, was electroporated into M. abscessus ATCC 19977 at a culture density equivalent to OD600˜20 using a BioRad GenePulser Xcell set at 2.5 kV, 25 uF, and 1,000Ω. […] Colonies carrying the plasmid were identified by their fluorescence. […]
Preparation of M. abscessus Inoculum and Zebrafish Infections Cultures of M. abscessus-pJKD2893:mScarlet in 7H9 media supplemented with 50 μg/ml kanamycin were grown to OD600 of 0.2-0.3 and concentrated to OD600 of 1 in 0.1% PBS-Tween-20. […] The actual CFU in the inoculum was determined a posteriori by injecting into 50 μl 0.1% PBS-Tween-20 and streaking on a plate. […]
Larvae were harvested to assess the bacterial load at 5 d post-infection using a slightly modified version of the Kremer lab method (Bernut et al., Antimicrob Agents Chemother 58: 4054-4063). […] Fluorescent colonies were counted after 5-6 days. […]

[1] = system: M. abscessus ATCC 19977, M. abscessus strains M422 and M110; experiment: Checkerboard synergy assay, statements on all 3 M. abscessus strains; assay type: cell-based, Mycobacterium abscessus; conditions: pre-induced M. abscessus strains (FIG. 4, Table 2)
Protocol: as §1
(§2) With Rfx identified as the best potentiator of Clr activity, the interaction between Rfx and Clr was investigated by a checkerboard synergy approach using a broth microdilution method performed in 96-well plates. To provide a classification of the combined antibiotics based on the fractional inhibitory concentration index (FICI), this assay applied the combination of Clr and Rfx in concentrations of 0-64 μg/ml by 2-fold serial dilutions along the abscissa and ordinate, respectively. The FICI was calculated by summing the FIC of Rfx and the FIC of Clr. FIC of Clr is the MIC of Clr in the presence of Rfx divided by MIC of Clr alone. FIC of Rfx was similarly calculated.
(§3) To characterize the interaction between Clr and Rfx, checkerboard synergy assays were performed on pre-induced Clr-resistant M. abscessus. The fractional inhibitory concentration index (FICI) obtained from the checkerboard assay defines whether the interaction between the two compounds is either synergistic (FICI≤0.5), additive (0.5<FICI≤1.0), indifferent (1.0<FICI≤4.0), or antagonistic (FICI >4.0) (Noel D J, Keevil C W, Wilks S A. 2021. MBio 12).

[2] = system: M. avium ATCC 700898 (uninduced); experiment: Checkerboard synergy assay; assay type: cell-based, Mycobacterium avium; conditions: Mycobacterium avium, ATCC700898; read-out: MIC90
Protocol: as §2
As both M. abscessus and M. avium are the main organism groups causing pulmonary NTM (Lim A Y H, et al., 2018. BMC Pulm Med 18 (1):85; Tan Y, et al., 2018. BMC Pulm Med 18 (1): 168), the inventors tested the combination of Clr and Rfx against M. avium in the checkerboard assay as well. With a FICI of 0.563, the interaction between Clr and Rfx was additive in M. avium.

[3] = system: M. abscessus ATCC 19977 (pre-induced); experiment: microbe, parasite or virus in culture; assay type: cell-based, Mycobacterium abscessus
Protocol: The FICI was calculated by summing the FIC of Rfx and the FIC of Clr. FIC of Clr is the MIC of Clr in the presence of Rfx divided by MIC of Clr alone. FIC of Rfx was similarly calculated.
as §3

[4] = clarithromycin 0 μg/ml, partner antibiotic 1 μg/ml
[5] = clarithromycin 0 μg/ml, partner antibiotic 2 μg/ml
[6] = clarithromycin 0 μg/ml, partner antibiotic 4 μg/ml
[7] = clarithromycin 0 μg/ml, partner antibiotic 8 μg/ml
[8] = clarithromycin 0 μg/ml, partner antibiotic 16 μg/ml
[9] = clarithromycin 0 μg/ml, partner antibiotic 32 μg/ml
[10] = clarithromycin 0 μg/ml, partner antibiotic 64 μg/ml

Row | Compound | % inhibition with 0.5 μg/ml Clr (M. abscessus strain M422) [%] | % inhibition with compound alone (M. abscessus strain M422) [%] | Percentage of bacterial growth [3, 4] [%] | Percentage of bacterial growth [3, 5] [%] | Percentage of bacterial growth [3, 6] [%] | Percentage of bacterial growth [3, 7] [%] | Percentage of bacterial growth [3, 8] [%] | Percentage of bacterial growth [3, 9] [%] | Percentage of bacterial growth [3, 10] [%] | other results
1 | OB1OCc2cc(F)ccc21 [AN-2690] | 96.7 | 80.4 | – | – | – | – | – | – | – | –
2 | CC(=O)OC[C@H]1O[C@@H]([S-])[C@H](OC(C)=O)[C@@H](OC(C)=O)[C@@H]1OC(C)=O.CCP(CC)CC.[Au+] [Auranofin] | 98.5 | 86.9 | – | – | – | – | – | – | – | –
3 | CO/N=C(\C(=O)N[C@@H]1C(=O)N2C(C(=O)O)=C(COC(C)=O)CS[C@H]12)c1csc(N)n1 [Cefotaxime (sodium salt), Cefotaxime] | 98.5 | 86.7 | – | – | – | – | – | – | – | –
4 | CC[C@H]1OC(=O)[C@H](C)[C@@H](O[C@H]2C[C@@](C)(OC)[C@@H](O)[C@H](C)O2)[C@H](C)[C@@H](O[C@@H]2O[C@H](C)C[C@H](N(C)C)[C@H]2O)[C@](C)(OC)C[C@@H](C)C(=O)[C@H](C)[C@@H](O)[C@]1(C)O [Clarithromycin, clarithromycin] | – | – | – | – | – | – | – | – | – | effect on bacterial load (M. abscessus ATCC 19977): unable to reduce bacterial load; reduction of the MIC of Clr when used in combination with Rfx [1]: at least 16 fold; MIC90 [2]: < 0.1 µg/mL; Percentage of bacterial growth ([3]; clarithromycin 1 μg/ml, partner antibiotic 0 μg/ml): 80.1% and 116.9% and 119.5% and 108.3% and 97.8% and 90.2% and 95.5%; Percentage of bacterial growth ([3]; clarithromycin 2 μg/ml, partner antibiotic 0 μg/ml): 80.6% and 99.5% and 102.2% and 98.9% and 80.2% and 84.8% and 96.8%; Percentage of bacterial growth ([3]; clarithromycin 4 μg/ml, partner antibiotic 0 μg/ml): 86.2% and 113.2% and 103.4% and 117.2% and 82.7% and 78.4% and 93.3%; Percentage of bacterial growth ([3]; clarithromycin 8 μg/ml, partner antibiotic 0 μg/ml): 76.2% and 102.8% and 93.2% and 108.1% and 71.4% and 97.4% and 92.9%; Percentage of bacterial growth ([3]; clarithromycin 16 μg/ml, partner antibiotic 0 μg/ml): 64.0% and 109.5% and 86.1% and 101.8% and 72.3% and 89.6% and 89.7%; Percentage of bacterial growth ([3]; clarithromycin 32 μg/ml, partner antibiotic 0 μg/ml): 77.4% and 84.3% and 83.8% and 115.7% and 59.0% and 98.2% and 95.4%
5 | CO[C@@H]1[C@@H](OC(N)=O)[C@@H](O)[C@H](Oc2ccc3c(O)c(NC(=O)c4ccc(O)c(CC=C(C)C)c4)c(=O)oc3c2C)OC1(C)C [Novobiocin (Sodium), Novobiocin] | 99.7 | 84.1 | – | – | – | – | – | – | – | –
6 | CC(=O)NC[C@H]1CN(c2ccc(N3CCSCC3)c(F)c2)C(=O)O1 [Sutezolid] | 92.8 | 80.4 | – | – | – | – | – | – | – | –
7 | Cn1nnc(-c2ccc(-c3ccc(N4C[C@H](CO)OC4=O)cc3F)cn2)n1 [Tedizolid] | 99.1 | 85.2 | – | – | – | – | – | – | – | –
8 | C[C@@H](O)[C@H]1C(=O)N2C(C(=O)O)=C(SCCN=CN)C[C@H]12 [imipenem] | – | – | 86.9 | 93.4 | 58.5 | 78.5 | 62.1 | 38.3 | 16.6 | –
9 | COc1c(N2C[C@@H]3CCCN[C@@H]3C2)c(F)cc2c(=O)c(C(=O)O)cn(C3CC3)c12 [moxifloxacin] | – | – | 107.8 | 122.8 | 86.4 | 51.2 | 13.4 | 7.4 | 0.6 | –
10 | CN(C)c1cc(NC(=O)CNC(C)(C)C)c(O)c2c1C[C@H]1C[C@H]3[C@H](N(C)C)C(O)=C(C(N)=O)C(=O)[C@@]3(O)C(O)=C1C2=O [tigecycline] | – | – | 64.2 | 74.2 | 77.8 | 67.0 | 39.3 | 22.4 | 10.1 | concentration at which synergistic effects with clarithromycin are exhibited ([3]; Table 3): ≥ 16 µg/mL; FICI ([3]; clarithromycin with a known partner antibiotic, each 0-64 μg/ml): 0.25
11 | CN[C@H](CC(C)C)C(=O)N[C@H]1C(=O)N[C@@H](CC(N)=O)C(=O)N[C@H]2C(=O)N[C@H]3C(=O)N[C@H](C(=O)N[C@H](C(=O)O)c4cc(O)cc(O)c4-c4cc3ccc4O)[C@H](O)c3ccc(c(Cl)c3)Oc3cc2cc(c3O[C@@H]2O[C@H](CO)[C@@H](O)[C@H](O)[C@H]2O[C@H]2C[C@](C)(N)[C@H](O)[C@H](C)O2)Oc2ccc(cc2Cl)[C@H]1O [vancomycin] | – | – | 103.7 | 102.0 | 105.7 | 91.7 | 90.8 | 86.6 | 83.1 | –
12 | oritavancin diphosphate | – | – | 68.0 | 59.1 | 51.1 | 46.8 | 40.9 | 32.2 | 26.1 | –
